Consider 13 compounds from patent publication US20020183362A1, “2-Fluorobenzenesulfonyl compounds for the treatment of inflammation” (Pharmacia Corporation, priority 2000, published 2002).

Molecules are shown by their SMILES.

Data set [1] has as its target T1, Human COX-2 (Homo sapiens, UniProt P35354).
T1 construct: A 2.0 kb fragment containing the coding region of either human or murine COX-1 or human or murine COX-2; made in house; host or cells: SF9 insect cells (baculovirus, transfer vector pVL1393)
T1 sequence (P35354 18-604): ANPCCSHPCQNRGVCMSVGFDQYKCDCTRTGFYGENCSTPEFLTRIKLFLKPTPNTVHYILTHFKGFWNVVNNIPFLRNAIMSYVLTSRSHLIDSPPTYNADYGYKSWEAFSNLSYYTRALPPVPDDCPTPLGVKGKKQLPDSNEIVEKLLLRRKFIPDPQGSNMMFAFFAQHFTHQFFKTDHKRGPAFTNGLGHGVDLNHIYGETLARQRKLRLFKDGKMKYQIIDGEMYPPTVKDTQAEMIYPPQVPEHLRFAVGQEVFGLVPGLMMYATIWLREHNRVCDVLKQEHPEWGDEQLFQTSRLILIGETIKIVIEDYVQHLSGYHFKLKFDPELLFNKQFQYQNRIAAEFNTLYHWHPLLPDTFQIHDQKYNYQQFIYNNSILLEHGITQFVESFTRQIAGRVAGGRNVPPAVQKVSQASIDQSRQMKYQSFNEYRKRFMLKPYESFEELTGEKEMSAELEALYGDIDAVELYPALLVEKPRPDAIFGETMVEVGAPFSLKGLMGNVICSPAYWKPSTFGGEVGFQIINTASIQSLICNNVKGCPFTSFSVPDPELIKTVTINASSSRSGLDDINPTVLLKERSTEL
Description: Assay for COX-1 and COX-2 activity (PGE2 ELISA, recombinant enzyme), COX-2. In kind it is biochemical. Conditions: Table I; pre-incubated 10-20 minutes, arachidonic acid 10 μM, stopped after ten minutes, pH 8.0. The method, then: The COX-2 inhibition activity of the compounds of this invention illustrated in the Examples was determined by the following methods.
(§1) Recombinant COX-1 and COX-2 were prepared as described by Gierse et al, [J. Biochem., 305, 479-84 (1995)]. A 2.0 kb fragment containing the coding region of either human or murine COX-1 or human or murine COX-2 was cloned into a BamH1 site of the baculovirus transfer vector pVL1393 (Invitrogen) to generate the baculovirus transfer vectors for COX-1 and COX-2 in a manner similar to the method of D. R. O'Reilly et al (Baculovirus Expression Vectors: A Laboratory Manual (1992)). Recombinant baculoviruses were isolated by transfecting 4 μg of baculovirus transfer vector DNA into SF9 insect cells (2×10^8) along with 200 ng of linearized baculovirus plasmid DNA by the calcium phosphate method. See M. D. Summers and G. E. Smith, A Manual of Methods for Baculovirus Vectors and Insect Cell Culture Procedures, Texas Agric. Exp. Station Bull. 1555 (1987). Recombinant viruses were purified by three rounds of plaque purification and high titer (10^7-10^8 pfu/mL) stocks of virus were prepared. For large scale production, SF9 insect cells were infected in 10 liter fermentors (0.5×10^6/mL) with the recombinant baculovirus stock such that the multiplicity of infection was 0.1. After 72 hours the cells were centrifuged and the cell pellet homogenized in Tris/Sucrose (50 mM: 25%, pH 8.0) containing 1% 3-[(3-cholamidopropyl)dimethylammonio]-1-propanesulfonate (CHAPS). The homogenate was centrifuged at 10,000×G for 30 minutes, and the resultant supernatant was stored at −80° C. before being assayed for COX activity.
COX activity was assayed as PGE2 formed/μg protein/time using an ELISA to detect the prostaglandin released. CHAPS-solubilized insect cell membranes containing the appropriate COX enzyme were incubated in a potassium phosphate buffer (50 mM, pH 8.0) containing epinephrine, phenol, and heme with the addition of arachidonic acid (10 μM). Compounds were pre-incubated with the enzyme for 10-20 minutes prior to the addition of arachidonic acid. Any reaction between the arachidonic acid and the enzyme was stopped after ten minutes at 37° C./room temperature by transferring 40 μl of reaction mix into […] and 25 μM indomethacin. The PGE2 formed was measured by standard ELISA technology (Cayman Chemical).
(In general: In an ELISA, binding on a coated surface is turned into a signal by an enzyme label.)

Data set [2] has as its target T2, Human COX-1 (Homo sapiens, UniProt P23219).
T2 construct: A 2.0 kb fragment containing the coding region of either human or murine COX-1 or human or murine COX-2; made in house; host or cells: SF9 insect cells (baculovirus, transfer vector pVL1393)
Description: Assay for COX-1 and COX-2 activity (PGE2 ELISA, recombinant enzyme), COX-1. Conditions: Table I; pre-incubated 10-20 minutes, arachidonic acid 10 μM, stopped after ten minutes, pH 8.0. The format is biochemical. The method, then:
as §1, with “Recombinant” for “Recombinant COX-1 and COX-2 were prepared as described by Gierse et al, [J. Biochem., 305, 479-84 (1995)]. A 2.0 kb fragment containing the coding region of either human or murine COX-1 or human or murine COX-2 was cloned into a BamH1 site of the baculovirus transfer vector pVL1393 (Invitrogen) to generate the baculovirus transfer vectors for COX-1 and COX-2 in a manner similar to the method of D. R. O'Reilly et al (Baculovirus Expression Vectors: A Laboratory Manual (1992)). Recombinant”, “1555 (1987).” left out
COX activity was assayed as PGE2 formed/μg protein/time using an ELISA to detect the prostaglandin released. CHAPS-solubilized insect cell membranes containing the appropriate COX enzyme were incubated in a potassium phosphate buffer (50 mM, pH 8.0) containing epinephrine, phenol, and heme with the addition of arachidonic acid (10 μM). Compounds were pre-incubated with the enzyme for 10-20 minutes prior to the addition of arachidonic acid. […] The PGE2 formed was measured by standard ELISA technology (Cayman Chemical).

The target in data set [3] is T1, Human COX-2. The data set is described as follows: Fast assay for COX-1 and COX-2 activity (PGE2 ELISA), COX-2. In kind it is biochemical. To be noted: Table II, pre-incubated 10 minutes at 25° C., arachidonic acid 10 μM, stopped after two minutes, pH 7.5. How it is done:
as §1
COX activity was assayed as PGE2 formed/μg protein/time using an ELISA to detect the prostaglandin released. CHAPS-solubilized insect cell membranes containing the appropriate COX enzyme were incubated in a potassium phosphate buffer (0.05 M Potassium phosphate, pH 7.5, 2 μM phenol, 1 μM heme, 300 μM epinephrine) with the addition of 20 μl of 100 μM arachidonic acid (10 μM). Compounds were pre-incubated with the enzyme for 10 minutes at 25° C. prior to the addition of arachidonic acid. Any reaction between the arachidonic acid and the enzyme was stopped after two minutes at 37° C./room temperature by transferring 40 μl of reaction mix into 160 μl ELISA buffer and 25 μM indomethacin. The PGE2 formed was measured by standard ELISA technology (Cayman Chemical).

Data set [4] deals with T2, Human COX-1. Description: Fast assay for COX-1 and COX-2 activity (PGE2 ELISA), COX-1. Conditions: Table II, pre-incubated 10 minutes at 25° C., arachidonic acid 10 μM, stopped after two minutes, pH 7.5. The format is biochemical. The method, then:
as §1, with “Recombinant” for “Recombinant COX-1 and COX-2 were prepared as described by Gierse et al, [J. Biochem., 305, 479-84 (1995)]. A 2.0 kb fragment containing the coding region of either human or murine COX-1 or human or murine COX-2 was cloned into a BamH1 site of the baculovirus transfer vector pVL1393 (Invitrogen) to generate the baculovirus transfer vectors for COX-1 and COX-2 in a manner similar to the method of D. R. O'Reilly et al (Baculovirus Expression Vectors: A Laboratory Manual (1992)). Recombinant”, “1555 (1987).” left out
COX activity was assayed as PGE2 formed/μg protein/time using an ELISA to detect the prostaglandin released. CHAPS-solubilized insect cell membranes containing the appropriate COX enzyme were incubated in a potassium phosphate buffer (0.05 M Potassium phosphate, pH 7.5, 2 μM phenol, 1 μM heme, 300 μM epinephrine) with the addition of 20 μl of 100 μM arachidonic acid (10 μM). Compounds were pre-incubated with the enzyme for 10 minutes at 25° C. prior to the addition of arachidonic acid. […] The PGE2 formed was measured by standard ELISA technology (Cayman Chemical).

T2 sequence (P23219 24-599): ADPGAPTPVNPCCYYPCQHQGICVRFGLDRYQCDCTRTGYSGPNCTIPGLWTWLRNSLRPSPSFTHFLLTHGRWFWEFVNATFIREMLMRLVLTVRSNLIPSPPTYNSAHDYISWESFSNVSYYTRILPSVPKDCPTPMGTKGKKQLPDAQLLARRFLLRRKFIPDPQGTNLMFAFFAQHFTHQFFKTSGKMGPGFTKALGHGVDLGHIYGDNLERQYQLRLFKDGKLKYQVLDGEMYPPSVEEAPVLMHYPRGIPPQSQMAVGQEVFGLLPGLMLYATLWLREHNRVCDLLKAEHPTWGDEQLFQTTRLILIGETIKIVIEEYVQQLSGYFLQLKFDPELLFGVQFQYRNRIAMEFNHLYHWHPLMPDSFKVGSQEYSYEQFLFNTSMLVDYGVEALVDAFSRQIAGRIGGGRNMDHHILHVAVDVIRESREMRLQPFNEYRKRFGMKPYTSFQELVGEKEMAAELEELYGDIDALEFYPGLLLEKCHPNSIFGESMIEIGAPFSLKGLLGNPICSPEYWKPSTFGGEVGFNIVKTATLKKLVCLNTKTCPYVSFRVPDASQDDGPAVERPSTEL

The term IC50 denotes the concentration needed to halve the response being measured. What is called melting point is the temperature, or range, at which the solid turns liquid. In turn, `Cc1ccc(-c2cc(C(F)F)nn2-c2ccc(S(N)(=O)=O)c(F)c2)cc1Cl` [Example 3, 4-[5-(3-chloro-4-methylphenyl)-3-(difluoromethyl)-1H-pyrazol-1-yl]-2-fluorobenzenesulfonamide] came in with a melting point of 160 to 161 °C. The IC50 in data set [1] was 5 nM. In addition, in data set [2], the IC50 amounted to 16300 nM. The same compound registered a 50% inhibitory concentration (IC50) in data set [3] of 4 nM. For the same compound, the IC50 in data set [4] amounted to 26900 nM.
In the case of `NS(=O)(=O)c1ccc(-c2cscc2-c2ccccc2)cc1F` [Example 1, 2-Fluoro-4-(4-phenyl-3-thienyl)benzenesulfonamide], the melting point lay within 170.9 to 171 °C. Also, the IC50 in data set [1] was found to be 11 nM. The IC50 in data set [2] stood at 37900 nM. In addition, the IC50 in data set [3] was 13 nM. The same compound registered an IC50 in data set [4] of 29400 nM.
With `CS(=O)(=O)c1ccc(C2=C(c3ccccc3)C(=O)OC2)cc1F` [Example 24], the melting point lay within 161 to 162 °C. Further, the IC50 in data set [1] was 15900 nM. The IC50 in data set [2] was above 100000 nM. In data set [3], this compound yielded an IC50 of 3730 nM. This compound yielded an IC50 in data set [4] above 100000 nM.
For the compound `CS(=O)(=O)c1ccc(-c2cc(C(F)(F)F)nn2-c2cccc(C(F)(F)F)c2)cc1F` [Example 13, 5-[3-Fluoro-4-(methylsulfonyl)phenyl]-3-(trifluoromethyl)-1-[3-(trifluoromethyl)phenyl]-1H-pyrazole], the IC50 in data set [1] was 180 nM; in data set [2], above 100000 nM; in data set [3], 150 nM; in data set [4], above 100000 nM.
Consider `CS(=O)(=O)c1ccc(-c2cscc2-c2ccccc2)cc1F` [Example 2, 3-[3-Fluoro-4-(methylsulfonyl)phenyl]-4-phenylthiophene], for which the melting point lay within 140 to 141 °C. Besides, the IC50 in data set [1] was found to be 51 nM. For the same compound, in data set [2], the IC50 was above 100000 nM. Inhibition in data set [3] was half-maximal at 43 nM (IC50). This compound gave an IC50 in data set [4] above 100000 nM.
As for `CS(=O)(=O)c1ccc(-c2cc(C(F)(F)F)nn2-c2ccc(OC(F)(F)F)cc2)cc1F` [Example 14, 5-[3-Fluoro-4-(methylsulfonyl)phenyl]-3-(trifluoromethyl)-1-[4-(trifluoromethoxy)phenyl]-1H-pyrazole], the melting point lay in the range of 110 to 112 °C. In addition, in data set [1], the IC50 is 62 nM. Moreover, the IC50 in data set [2] is above 100000 nM. Further, the IC50 in data set [3] is 64 nM. The IC50 in data set [4] was above 100000 nM.
As for `Cc1ccc(-n2nc(C(F)(F)F)cc2-c2ccc(S(C)(=O)=O)c(F)c2)cc1Cl` [Example 15, 1-(3-Chloro-4-methylphenyl)-5-[3-fluoro-4-(methylsulfonyl)phenyl]-3-(trifluoromethyl)-1H-pyrazole], the melting point fell in the range of 144 to 145 °C. Also, the IC50 in data set [1] was 16 nM. Besides, in data set [2], the IC50 was above 100000 nM. Further, in data set [3], the IC50 is 15 nM. This compound showed an IC50 in data set [4] of 2360 nM.
Compound `CS(=O)(=O)c1ccc(-c2cc(C(F)(F)F)nn2C2CCCCC2)cc1F` [Example 12, 1-Cyclohexyl-5-[3-fluoro-4-(methylsulfonyl)phenyl]-3-(trifluoromethyl)-1H-pyrazole] returned a melting point of 228 to 229 °C. For the same compound, in data set [1], the IC50 was determined as 180 nM. The IC50 in data set [2] is above 100000 nM. Moreover, half-maximal inhibition in data set [3] (IC50) required 140 nM. In data set [4], this compound yielded an IC50 above 100000 nM.
As to `Cc1ccc(-n2nc(C(F)F)cc2-c2ccc(S(C)(=O)=O)c(F)c2)cc1Cl` [Example 20, 1-(3-Chloro-4-methylphenyl)-3-(difluoromethyl)-5-[3-fluoro-4-(methylsulfonyl)phenyl]-1H-pyrazole], the IC50 in data set [1] is 36 nM; in data set [2], above 100000 nM; in data set [3], 53 nM; in data set [4], above 100000 nM.
With `CS(=O)(=O)c1ccc(-c2cc(C(F)F)nn2-c2ccc(F)cc2)cc1F` [Example 18, 3-(Difluoromethyl)-5-[3-fluoro-4-(methylsulfonyl)phenyl]-1-(4-fluorophenyl)-1H-pyrazole], the IC50 in data set [1] was 320 nM; in data set [2], above 100000 nM; in data set [3] it was 310 nM; in data set [4] it was above 100000 nM.
With `COc1ccccc1-c1cc(C(F)(F)F)nn1-c1ccc(S(N)(=O)=O)c(F)c1` [Example 9, 2-Fluoro-4-[5-(2-methoxyphenyl)-3-(trifluoromethyl)-1H-pyrazol-1-yl]benzenesulfonamide], the IC50 in data set [1] was 250 nM; in data set [2], above 100000 nM; in data set [3], 180 nM; in data set [4], above 100000 nM.
As to `NS(=O)(=O)c1ccc(-n2nc(C(F)(F)F)cc2-c2ccc(F)cc2)cc1F` [Example 8, 2-Fluoro-4-[5-(4-fluorophenyl)-3-(trifluoromethyl)-1H-pyrazol-1-yl]benzenesulfonamide], the IC50 turned out to be 20 nM in data set [1], 56800 nM in data set [2], 21 nM in data set [3] and 41500 nM in data set [4].
As for `COc1ccc(-c2cc(C(F)(F)F)nn2-c2ccc(S(N)(=O)=O)c(F)c2)cc1F` [Example 6, 4-[5-(3-Fluoro-4-methoxy)-3-trifluoromethyl-1H-pyrazol-1-yl]-2-fluorobenzenesulfonamide], the IC50 in data set [1] is 25 nM; in data set [2] it was 45600 nM; in data set [3] it was 18 nM; in data set [4] it was above 100000 nM.
